We go through 16 molecules from patent publication US10752587B2, “Homobispiperidinyl derivatives as liver X receptor beta agonists, compositions and their use” (Merck Sharp & Dohme Corp., priority 2015, dated 2020).

Each structure is given as a SMILES string.

In experiment [1] the target is T1, glutathione-S-transferase (GST) tagged LXRbeta LBD (ligand binding domain) (Homo sapiens, UniProt P55055).
T1 construct: purchased Invitrogen pv4658.pps
T1 sequence (P55055 222-460 limits assumed): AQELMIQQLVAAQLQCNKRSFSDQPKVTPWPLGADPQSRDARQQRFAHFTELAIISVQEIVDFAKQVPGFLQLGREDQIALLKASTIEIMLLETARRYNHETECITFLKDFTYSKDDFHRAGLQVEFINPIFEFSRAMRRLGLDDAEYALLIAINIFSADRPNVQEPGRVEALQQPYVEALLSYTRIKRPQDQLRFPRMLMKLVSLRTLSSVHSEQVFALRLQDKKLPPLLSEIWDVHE
The experiment is described as follows: LanthaScreen TR-FRET Liver X Receptor Coactivator Assay, co-activator recruitment to LXRbeta LBD. As to conditions: for Emax: read-out: LXR beta Activity @ max dose (%); for EC50: potency (Inflection Point, IP), co-activator recruitment to LXRbeta LBD, in relation to T0901317, read-out: LXR beta IP. It counts as biochemical. The procedure, abridged:
(§1)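 Readout is time-resolved FRET between a terbium anti-GST antibody bound to the LBD and a fluorescein-tagged coactivator peptide recruited on ligand binding. Plates were incubated at room temperature before reading. Potency (IP) and efficacy (Emax) are referenced to T0901317.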

Experiment [2] deals with T2, glutathione-S-transferase (GST) tagged LXRalpha LBD (ligand binding domain) (Homo sapiens, UniProt Q13133).
T2 construct: purchased Invitrogen pv4655
T2 sequence (Q13133 209-447 limits assumed): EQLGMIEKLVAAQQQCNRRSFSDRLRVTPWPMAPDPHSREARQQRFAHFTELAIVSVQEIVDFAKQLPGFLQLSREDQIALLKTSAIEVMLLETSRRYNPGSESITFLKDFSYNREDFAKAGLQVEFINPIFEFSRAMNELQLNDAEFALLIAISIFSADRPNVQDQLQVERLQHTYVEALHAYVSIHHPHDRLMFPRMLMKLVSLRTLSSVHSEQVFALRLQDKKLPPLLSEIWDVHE
Kind of experiment: LanthaScreen TR-FRET Liver X Receptor Coactivator Assay, co-activator recruitment to LXRalpha LBD. It is filed as biochemical. As to conditions: for Emax: read-out: LXR alpha Activity @ max dose (%); for EC50 / LXR alpha IP (nM): potency (Inflection Point, IP), co-activator recruitment to LXRalpha LBD, in relation to T0901317; for EC50: read-out: LXR alpha IP. In outline:
as §1

[3] abbreviates: efficacy at max dose, in relation to reference dual agonist T0901317.

On to `CNC(=O)c1ccc(N2CCC(CC3CCN(C(=O)[C@](O)(c4cccc(Br)c4)C(F)(F)F)CC3)CC2)cc1Cl` [Example 7-119, 4-[4-({1-[(2R)-2-(3-bromophenyl)-3,3,3-trifluoro-2-hydroxypropanoyl]piperidin-4-yl}methyl)piperidin-1-yl]-2-chloro-N-methyl-benzamide], for which the Emax in experiment [1] (setting [3]) turned out to be 82%; in experiment [2] (setting [3]), 32%. For the same molecule, the figures for the EC50 in experiment [1] and in experiment [2] were 12 nM and 182 nM, respectively.

As to `COc1cccc([C@@](O)(C(=O)N2CC(CC3CCN(c4ccc(C(=O)N(C)C)c(OC)n4)CC3)C2)C(F)(F)F)c1` [Example 7-21, 2-methoxy-N,N-dimethyl-6-[4-[{1-[(2R)-3,3,3-trifluoro-2-hydroxy-2-(3-methoxyphenyl)propanoyl]azetidin-3-yl}methyl)piperidin-1-yl]pyridine-3-carboxamide], the figures for the Emax in experiment [1] (setting [3]) and in experiment [2] (setting [3]) were 70% and 2%, respectively. Further, in experiment [1], the EC50 is 169 nM. Further, the “LXR alpha IP (nM)” value in experiment [2] was “NO IP”.

For `COc1cccc([C@@](O)(C(=O)N2CCC(CC3CCN(c4ccc(C(=O)N(C)C)cc4)CC3)CC2)C(F)(F)F)c1` [Example 2-132, N,N-dimethyl-4-[4-({1-[(2R)-3,3,3-trifluoro-2-hydroxy-2-(3-methoxyphenyl)propanoyl]piperidin-4-yl}methyl)piperidin-1-yl]benzamide], the “LXR beta Activity @ max dose (%)” value in experiment [1] (setting [3]) is 49%. In addition, the EC50 in experiment [1] is 51 nM. Besides, in experiment [2] (setting [3]), the “LXR alpha Activity @ max dose (%)” value was 7%. The “LXR alpha IP (nM)” value in experiment [2] is given as “NO IP”.

`CCOc1cccc([C@@](O)(C(=O)N2CC(CC3CCN(c4ccc(C(=O)N(C)C)c(Cl)c4)CC3)C2)C(F)(F)F)c1` [Example 2-62, 2-chloro-4-[4-({1-[(2R)-2-(3-ethoxy-phenyl)-3,3,3-trifluoro-2-hydroxy-propanoyl]azetidin-3-yl}methyl)piperidin-1-yl]-N,N-dimethyl-benzamide]: the Emax in experiment [1] (setting [3]) worked out at 71%; in experiment [2] (setting [3]), 0%. The EC50 in experiment [1] is 20 nM. The “LXR alpha IP (nM)” value in experiment [2] was “NO IP”.

As for `CNC(=O)c1ccc(N2CCC(CC3CCN(C(=O)C(O)(c4cccc(C#N)c4)C(F)(F)F)CC3)CC2)nc1Cl` (stereo not shown) [Example 7-144, 2-chloro-6-[4-({1-[2-(3-cyanophenyl)-3,3,3-trifluoro-2-hydroxypropanoyl]piperidin-4-yl}methyl)piperidin-1-yl]-N-methylpyridine-3-carboxamide], the Emax in experiment [1] (setting [3]) is 107%; in experiment [2] (setting [3]) it was 61%. Further, the EC50 was found to be 20 nM in experiment [1] and 215 nM in experiment [2].

`COc1cc(F)cc([C@@](O)(C(=O)N2CCC(CC3CCN(c4ccc(C(=O)N(C)C)c(C)c4)CC3)CC2)C(F)(F)F)c1` [Example 2-152, N,N,2-trimethyl-4-[4-({1-[(2R)-3,3,3-trifluoro-2-(3-fluoro-5-methoxyphenyl)-2-hydroxy-propanoyl]piperidin-4-yl}methyl)piperidin-1-yl]benzamide]: the figures for the Emax in experiment [1] (setting [3]) and in experiment [2] (setting [3]) were 74% and 18%, respectively. The EC50 in experiment [1] is 11 nM. In addition, the “LXR alpha IP (nM)” value in experiment [2] was “NO IP”.

As for `CCOc1cccc([C@@](O)(C(=O)N2CCC(C)(CC3CCN(c4ccc(C(=O)N(C)C)c(Cl)c4)CC3)CC2)C(F)(F)F)c1` [Example 2-50, 2-chloro-4-[4-({1-[(2R) 2-(3-ethoxy-phenyl)-3,3,3-trifluoro-2-hydroxy-propanoyl]-4-methyl-piperidin-4-yl}methyl)piperidin-1-yl]-N,N-dimethyl-benzamide], the Emax in experiment [1] (setting [3]) was determined as 29%; in experiment [2] (setting [3]) it was 0%. Moreover, in experiment [1], the EC50 came out at 8 nM. Besides, in experiment [2], the “LXR alpha IP (nM)” value is “NO IP”.

As to `CN(C)C(=O)c1ccc(N2CCC(CC3CCN(C(=O)[C@](O)(c4cccc(Cl)c4)C(F)(F)F)CC3)CC2)cc1Cl` [Example 2-86, 2-chloro-4-[4-({1-[(2R)-2-(3-chloro-phenyl)-3,3,3-trifluoro-2-hydroxy-propanoyl]piperidin-4-yl}methyl)piperidin-1-yl]-N,N-dimethyl-benzamide], the Emax in experiment [1] (setting [3]) was 68%; in experiment [2] (setting [3]), 22%. Further, the results for the EC50 in experiment [1] and in experiment [2] were 6 nM and 98 nM, respectively.

For the molecule `CN(C)C(=O)c1ccc(N2CCC(CC3CCN(C(=O)[C@@](O)(c4cccc(F)c4)C(F)(F)F)CC3)CC2)nc1Cl` [Example 7-73, 2-chloro-N,N-dimethyl-6-[4-({1-[(2S)-3,3,3-trifluoro-2-(3-fluorophenyl)-2-hydroxypropanoyl]piperidin-4-yl}methyl)piperidin-1-yl]pyridine-3-carboxamide], the Emax worked out at 128% in experiment [1] (setting [3]) and 47% in experiment [2] (setting [3]). The EC50 in experiment [1] is 47 nM; in experiment [2], 922 nM.

For the molecule `CCOc1cccc([C@@](O)(C(=O)N2CCC(CC3CCN(c4ccc(C(=O)N(C)C)c(C5CC5)n4)CC3)CC2)C(F)(F)F)c1` [Example 7-12, 2-cyclopropyl-6-[4-({1-[(2R)-2-(3-ethoxyphenyl)-3,3,3-trifluoro-2-hydroxypropanoyl]piperidin-4-yl}methyl)piperidin-1-yl]-N,N-dimethylpyridine-3-carboxamide], the Emax in experiment [1] (setting [3]) amounted to 71%; in experiment [2] (setting [3]) it was 6%. Further, the EC50 in experiment [1] amounted to 24 nM. For the same molecule, in experiment [2], the “LXR alpha IP (nM)” value is “NO IP”.

As for `CCc1cccc([C@@](O)(C(=O)N2CC(CC3CCN(c4ccc(C(=O)N(C)C)c(Cl)n4)CC3)C2)C(F)(F)F)c1` [Example 7-43, 2-chloro-6-[4-({1-[(2R)-2-(3-ethylphenyl)-3,3,3-trifluoro-2-hydroxypropanoyl]azetidin-3-yl}methyl)piperidin-1-yl]-N,N-dimethylpyridine-3-carboxamide], the Emax in experiment [1] (setting [3]) was determined as 80%; in experiment [2] (setting [3]), 16%. The EC50 in experiment [1] amounted to 33 nM. The “LXR alpha IP (nM)” value in experiment [2] is “NO IP”.

On to `CN(C)C(=O)c1ncc(N2CCC(CC3CCN(C(=O)[C@](O)(c4ccccc4)C(F)(F)F)CC3)CC2)cc1Cl` [Example 2-4, 3-chloro-N,N-dimethyl-5-[4-({1-[(2R)-3,3,3-trifluoro-2-hydroxy-2-phenylpropanoyl]piperidin-4-yl}methyl)piperidin-1-yl] pyridine-2-carboxamide], for which the Emax came out at 80% in experiment [1] (setting [3]) and 24% in experiment [2] (setting [3]). Also, the EC50 was 19 nM in experiment [1] and 461 nM in experiment [2].

With `O=C(c1ccc(N2CCC(CC3CCN(C(=O)[C@](O)(c4ccccc4)C(F)(F)F)CC3)CC2)cc1Cl)N1[C@H]2CC[C@@H]1CC2` [Example 4-21, (2R)-3-{4-[(1-{4-[(1s,4s)-7-aza-bicyclo[2.2.1]hept-7-ylcarbonyl]-3-chlorophenyl}piperidin-4-yl)methyl]piperidin-1-yl}-1,1,1-trifluoro-3-oxo-2-phenylpropan-2-ol], the values for the Emax in experiment [1] (setting [3]) and in experiment [2] (setting [3]) were 63% and 25%, respectively. In addition, the results for the EC50 in experiment [1] and in experiment [2] were 74 nM and 457 nM, respectively.

Turning to `COc1cccc([C@@](O)(C(=O)N2CCC(OC3CCN(c4ccc(C(=O)N(C)C)c(Cl)c4)CC3)CC2)C(F)(F)F)c1` [Example 2-28, 2-chloro-N,N-dimethyl-4-[4-({1-[(2R)-3,3,3-trifluoro-2-hydroxy-2-(3-methoxyphenyl)propanoyl]piperidin-4-yl}oxy)piperidin-1-yl]benzamide], the Emax amounted to 87% in experiment [1] (setting [3]) and 28% in experiment [2] (setting [3]). In addition, the EC50 is 25 nM in experiment [1] and 1740 nM in experiment [2].

Regarding `CCN(C)C(=O)c1ccc(N2CCC(CC3CCN(C(=O)[C@](O)(c4ccccc4)C(F)(F)F)CC3)CC2)cc1Cl` [Example 4-12, 2-chloro-N-ethyl-N-methyl-4-[4-({1-[(2R)-3,3,3-trifluoro-2-hydroxy-2-phenylpropanoyl]piperidin-4-yl}methyl)piperidin-1-yl]benzamide], the Emax is 83% in experiment [1] (setting [3]) and 34% in experiment [2] (setting [3]). In addition, the values for the EC50 in experiment [1] and in experiment [2] were 14 nM and 166 nM, respectively.

On to `COc1cccc([C@@](N)(C(=O)N2CCC(CC3CCN(c4ccc(C(=O)N(C)C)c(Cl)n4)CC3)CC2)C(F)(F)F)c1` [Example 7-114, 6-[4-({1-[(2R)-2-amino-3,3,3-trifluoro-2-(3-methoxyphenyl)propanoyl]piperidin-4-yl}methyl)piperidin-1-yl]-2-chloro-N,N-dimethylpyridine-3-carboxamide], for which the Emax in experiment [1] (setting [3]) came to 21%; in experiment [2] (setting [3]), 0%. Also, in experiment [1], the EC50 was found to be 236 nM. Moreover, the “LXR alpha IP (nM)” value in experiment [2] is reported as “NO IP”.
